Results on 14 compounds are retold here after patent US10611740B2, “Aryl dihydro-2H-benzo[b][1,4]oxazine sulfonamide and related compounds for use as agonists of RORγ and the treatment of disease” (Lycera Corporation, priority 2015, dated 2020).

One assay addresses T1, RORγ-LBD (Homo sapiens, UniProt P51449).
T1 construct: made in house; host or cells: SF9 cells (baculovirus)
T1 sequence (P51449 269-508 limits assumed): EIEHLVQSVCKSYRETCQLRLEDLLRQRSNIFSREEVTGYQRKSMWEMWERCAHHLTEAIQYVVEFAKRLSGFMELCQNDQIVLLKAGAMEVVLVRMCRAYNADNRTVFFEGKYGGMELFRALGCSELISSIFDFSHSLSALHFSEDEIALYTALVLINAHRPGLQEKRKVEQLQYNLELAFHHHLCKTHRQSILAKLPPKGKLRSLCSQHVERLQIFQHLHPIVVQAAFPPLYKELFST
As to the kind of experiment: RORγ-Ligand Binding Domain (LBD) TR-FRET Assay.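 For TR-FRET Assay Max Response: 665/615 nm ratio relative to signal without ursolic acid or compound set at 100.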 The class given is biochemical. Put shortly:
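TR-FRET read-out using a biotin-tagged SRC1 coactivator LXXLL peptide (200 nM final), with the antagonist ursolic acid present at 2 μM final. Receptor is His-tagged LBD expressed in SF9 cells, ~3 nM final in pH 7.0 Tris/KCl/EDTA/DTT/BSA buffer; compounds in 1% DMSO final.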

The target in a further assay is T2, Gal4-RORγ-LBD (Homo sapiens, UniProt P51449).
T2 construct: expressed in transfected cells; host or cells: HEK-293 cells (pcDNA3.1neo plasmid)
T2 sequence (P51449 269-508 limits assumed): T1 sequence (P51449 269-508 limits assumed)
Put plainly: Gal4-RORγ Luciferase Reporter Assay in HEK-293T Cells. The class given is cell-based. To be noted: HEK-293 cells. Put shortly: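 Luminescence read-out (One-Glo, 10 min RT) after overnight compound exposure at 37 °C in HEK-293 cells carrying Gal4-RORγ-LBD plus a Gal4-luciferase reporter, in the presence of 2 μM ursolic acid. Max Response is the upper plateau from a 4-parameter logistic fit, normalized to untreated signal = 100.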
Background: In a reporter assay the amount or activity of a reporter protein is the signal.

Where [1] appears, read: luciferase reporter, with 2 μM ursolic acid.

The structures appear in SMILES notation. Some results are limits rather than exact numbers.

Take `CC(C)(C[C@@H]1CN(S(=O)(=O)c2cccc(C(F)(F)F)c2)c2cc(-c3cc(F)cc(Cl)c3F)ccc2O1)C(=O)O` [Compound 32AO, (R)-3-(6-(3-chloro-2,5-difluoro-phenyl)-4-((3-(trifluoromethyl)-phenyl)sulfonyl)-3,4-dihydro-2H-benzo[b][1,4]oxazin-2-yl)-2,2-dimethylpropanoic acid]: at RORγ-LBD, the EC50 (usually the concentration giving half of the maximal effect) is < 500 nM and the “TR-FRET Assay Max Response” value is on record as “** (The symbol “**” indicates a value in the range of greater than 90 to 150)”. In addition, at Gal4-RORγ-LBD (2 μM ursolic acid), the EC50 was in the range of 500 to 5000 nM and the “Gal4-RORγ Assay Max Response” value is on record as “* (The symbol “*” indicates a value in the range of 25 to 90)”.
On to `CC(C)(O)C(=O)NC[C@H]1CN(S(=O)(=O)c2cccc(C(F)(F)F)c2)c2cc(-c3cccc(C(F)(F)F)n3)ccc2O1` [Compound 30I, (S)-2-hydroxy-2-methyl-N-((4-((3-(trifluoromethyl)phenyl)-sulfonyl)-6-(6-(trifluoromethyl)-pyridin-2-yl)-3,4-dihydro-2H-benzo[b][1,4]oxazin-2-yl)methyl)propanamide], for which, at RORγ-LBD, the EC50 was < 500 nM and the “TR-FRET Assay Max Response” value was “**** (The symbol “****” indicates a value greater than 200)”. At Gal4-RORγ-LBD (setting [1]), the EC50 was < 500 nM and the “Gal4-RORγ Assay Max Response” value is recorded as “* (The symbol “*” indicates a value in the range of 25 to 90)”.
Take `CC(C)(C[C@H]1CN(S(=O)(=O)c2cccc(C(F)(F)F)c2)c2cc(-c3cccc(F)c3F)ccc2O1)C(=O)O` [Compound 32K, (S)-3-(6-(2,3-difluorophenyl)-4-((3-(trifluoromethyl)-phenyl)sulfonyl)-3,4-dihydro-2H-benzo[b][1,4]oxazin-2-yl)-2,2-dimethylpropanoic acid]: on RORγ-LBD, the 50% effective concentration (EC50) is < 500 nM and the “TR-FRET Assay Max Response” value was “**** (The symbol “****” indicates a value greater than 200)”. Moreover, on Gal4-RORγ-LBD (setting [1]), the EC50 was < 500 nM and the “Gal4-RORγ Assay Max Response” value is given as “** (The symbol “**” indicates a value in the range of greater than 90 to 150)”.
In the case of `O=C(O)CC[C@H]1CN(S(=O)(=O)c2cccc(C(F)(F)F)c2)c2cc(-c3cc(F)cc(F)c3F)ccc2O1` [Compound 4AK, (S)-3-(4-((3-(trifluoromethyl)-phenyl)sulfonyl)-6-(2,3,5-trifluorophenyl)-3,4-dihydro-2H-benzo[b][1,4]oxazin-2-yl)propanoic acid], at RORγ-LBD, the concentration for a half-maximal effect (EC50) was < 500 nM and the “TR-FRET Assay Max Response” value is “**** (The symbol “****” indicates a value greater than 200)”. Further, at Gal4-RORγ-LBD (setting [1]), the EC50 is < 500 nM and the “Gal4-RORγ Assay Max Response” value was “** (The symbol “**” indicates a value in the range of greater than 90 to 150)”.
For `O=C(O)[C@H]1C[C@H](C[C@H]2CN(S(=O)(=O)c3cccc(C(F)(F)F)c3)c3cc(-c4cccc(C(F)(F)F)n4)ccc3O2)C1` [Compound 60C, (1S,3r)-3-(((S)-4-((3-(trifluoro-methyl)phenyl)sulfonyl)-6-(6-(trifluoromethyl)pyridin-2-yl)-3,4-dihydro-2H-benzo[b][1,4]-oxazin-2-yl)methyl)cyclobutane-1-carboxylic acid], on RORγ-LBD, the EC50 was < 500 nM and the “TR-FRET Assay Max Response” value was “** (The symbol “**” indicates a value in the range of greater than 90 to 150)”. In addition, on Gal4-RORγ-LBD (2 μM ursolic acid), the EC50 was < 500 nM and the “Gal4-RORγ Assay Max Response” value is recorded as “** (The symbol “**” indicates a value in the range of greater than 90 to 150)”.
For the compound `O=C(O)CC[C@H]1CN(S(=O)(=O)c2cccc(C(F)(F)F)c2)c2cc(-c3nccc(C(F)(F)F)n3)ccc2O1` [Compound 4B, (S)-3-(4-((3-(trifluoromethyl)-phenyl)sulfonyl)-6-(4-(trifluoromethyl)pyrimidin-2-yl)-3,4-dihydro-2H-benzo[b][1,4]oxazin-2-yl)propanoic acid], at RORγ-LBD, the EC50 was < 500 nM and the “TR-FRET Assay Max Response” value is recorded as “*** (The symbol “***” indicates a value in the range of greater than 150 to 200)”. For the same compound, on Gal4-RORγ-LBD (setting [1]), the EC50 was < 500 nM and the “Gal4-RORγ Assay Max Response” value is given as “** (The symbol “**” indicates a value in the range of greater than 90 to 150)”.
On to `C[C@]1(C(=O)O)C[C@H](C[C@H]2CN(S(=O)(=O)c3cccc(C(F)(F)F)c3)c3cc(-c4cccc(C(F)(F)F)n4)ccc3O2)C1` [Compound 60N, (1S,3r)-1-methyl-3-(((S)-4-((3-(trifluoromethyl)phenyl)-sulfonyl)-6-(6-(trifluoro-methyl)pyridin-2-yl)-3,4-dihydro-2H-benzo[b][1,4]-oxazin-2-yl)methyl)cyclobutane-1-carboxylic acid], for which, at RORγ-LBD, the 50% effective concentration (EC50) is < 500 nM and the “TR-FRET Assay Max Response” value is listed as “** (The symbol “**” indicates a value in the range of greater than 90 to 150)”. At Gal4-RORγ-LBD (2 μM ursolic acid), the EC50 is < 500 nM and the “Gal4-RORγ Assay Max Response” value is given as “** (The symbol “**” indicates a value in the range of greater than 90 to 150)”.
In the case of `CC(=O)NC(C)(C)C[C@@H]1CN(S(=O)(=O)c2cccc(C(F)(F)F)c2)c2cc(-c3cc(F)ccc3F)ccc2O1` [Compound 30DC, (R)-N-(1-(6-(2,5-difluoro-phenyl)-4-((3-(trifluoromethyl)-phenyl)sulfonyl)-3,4-dihydro-2H-benzo[b][1,4]oxazin-2-yl)-2-methylpropan-2-yl)acetamide], at RORγ-LBD, the EC50 is < 500 nM and the “TR-FRET Assay Max Response” value is reported as “*** (The symbol “***” indicates a value in the range of greater than 150 to 200)”. On Gal4-RORγ-LBD (2 μM ursolic acid), the EC50 lay within 500 to 5000 nM and the “Gal4-RORγ Assay Max Response” value is recorded as “* (The symbol “*” indicates a value in the range of 25 to 90)”.
Take `Cc1ccc(N(C)C)nc1-c1ccc2c(c1)N(S(=O)(=O)c1cccc(C(F)(F)F)c1)C[C@H](CCC(=O)O)O2` [Compound 4AO, (S)-3-(6-(6-(dimethylamino)-3-methylpyridin-2-yl)-4-((3-(trifluoromethyl)phenyl)sul-fonyl)-3,4-dihydro-2H-benzo[b][1,4]oxazin-2-yl)propanoic acid]: on RORγ-LBD, the EC50 is 500 to 5000 nM and the “TR-FRET Assay Max Response” value is listed as “* (The symbol “*” indicates a value in the range of 25 to 90)”. In addition, at Gal4-RORγ-LBD (setting [1]), the 50% effective concentration (EC50) was > 10000 nM and the “Gal4-RORγ Assay Max Response” value was “* (The symbol “*” indicates a value in the range of 25 to 90)”.
With `O=C(O)CC[C@H]1CN(S(=O)(=O)c2cccc(C(F)(F)F)c2)c2cc(-c3ccc(F)c(Cl)c3)ccc2O1` [Compound 2J, (S)-3-(6-(3-chloro-4-fluorophenyl)-4-((3-(trifluoromethyl)phenyl)-sulfonyl)-3,4-dihydro-2H-benzo[b][1,4]oxazin-2-yl)propanoic acid], at RORγ-LBD, the concentration for a half-maximal effect (EC50) is < 500 nM and the “TR-FRET Assay Max Response” value is reported as “** (The symbol “**” indicates a value in the range of greater than 90 to 150)”. Besides, at Gal4-RORγ-LBD (setting [1]), the EC50 is 500 to 5000 nM and the “Gal4-RORγ Assay Max Response” value is on record as “* (The symbol “*” indicates a value in the range of 25 to 90)”.
Take `O=C(O)C1CC(=O)N(C[C@H]2CN(S(=O)(=O)c3cccc(C(F)(F)F)c3)c3cc(-c4cc(F)ccc4F)ccc3O2)C1` (stereo partly drawn) [Compound 18, 1-(((S)-6-(2,5-difluorophenyl)-4-((3-(trifluoromethyl)phenyl)sulfonyl)-3,4-dihydro-2H-benzo[b][1,4]oxazin-2-yl)methyl)-5-oxopyrrolidine-3-carboxylic acid]: at RORγ-LBD, the EC50 was < 500 nM and the “TR-FRET Assay Max Response” value is “**** (The symbol “****” indicates a value greater than 200)”. Further, at Gal4-RORγ-LBD (2 μM ursolic acid), the 50% effective concentration (EC50) lay in the range of 500 to 5000 nM and the “Gal4-RORγ Assay Max Response” value is “** (The symbol “**” indicates a value in the range of greater than 90 to 150)”.
As for `O=C(O)CCC[C@H]1CN(S(=O)(=O)c2cccc(C(F)(F)F)c2)c2cc(-c3cccc(F)c3F)ccc2O1` [Compound 21A, (S)-4-(6-(2,3-difluorophenyl)-4-((3-(trifluoromethyl)phenyl)-sulfonyl)-3,4-dihydro-2H-benzo[b][1,4]oxazin-2-yl)butanoic acid], at RORγ-LBD, the concentration giving a half-maximal response (EC50) is < 500 nM and the “TR-FRET Assay Max Response” value was “**** (The symbol “****” indicates a value greater than 200)”. Moreover, on Gal4-RORγ-LBD (setting [1]), the EC50 is < 500 nM and the “Gal4-RORγ Assay Max Response” value was “** (The symbol “**” indicates a value in the range of greater than 90 to 150)”.
Regarding `C[C@@H](C[C@H]1CN(S(=O)(=O)c2cccc(C(F)(F)F)c2)c2cc(-c3cc(F)cc(F)c3Cl)ccc2O1)C(=O)O` [Compound 46C, (S)-3-((S)-6-(2-chloro-3,5-difluorophenyl)-4-((3-(trifluoro-methyl)phenyl)sulfonyl)-3,4-dihydro-2H-benzo[b][1,4]oxazin-2-yl)-2-methylpropanoic acid], at RORγ-LBD, the 50% effective concentration (EC50) was < 500 nM and the “TR-FRET Assay Max Response” value is “*** (The symbol “***” indicates a value in the range of greater than 150 to 200)”. Besides, at Gal4-RORγ-LBD (setting [1]), the EC50 was < 500 nM and the “Gal4-RORγ Assay Max Response” value is listed as “** (The symbol “**” indicates a value in the range of greater than 90 to 150)”.
With `O=C(O)[C@@H]1C[C@H]1[C@H]1CN(S(=O)(=O)c2cccc(C(F)(F)F)c2)c2cc(-c3cc(F)ccc3F)ccc2O1` [Compound 53, (1R,2R)-2-((S)-6-(2,5-difluorophenyl)-4-((3-(trifluoromethyl)phenyl)sulfonyl)-3,4-dihydro-2H-benzo[b][1,4]oxazin-2-yl)cyclopropane-1-carboxylic acid], at RORγ-LBD, the EC50 is < 500 nM and the “TR-FRET Assay Max Response” value is on record as “** (The symbol “**” indicates a value in the range of greater than 90 to 150)”. Moreover, at Gal4-RORγ-LBD (2 μM ursolic acid), the concentration for a half-maximal effect (EC50) is < 500 nM and the “Gal4-RORγ Assay Max Response” value was “** (The symbol “**” indicates a value in the range of greater than 90 to 150)”.
